Source: patent publication US8101603B2, “Tyrosine kinase inhibitors” (Merck Sharp & Dohme Corp., priority 2006, dated 2012)

Biological target: T1, human c-Met (Homo sapiens, UniProt P08581)
T1 construct: Recombinant GST-tagged cytosolic domains of human c-Met; 6xHis; made in house; host or cells: Sf9 or Sf21 insect cells (baculovirus, Pharmingen pGcGHLT vector)
Assay: In vitro c-Met kinase assay (homogeneous time-resolved fluorescence)
Type: biochemical
Conditions: recombinant GST-tagged c-Met cytosolic domain, 50 μM MgATP, HTRF
Source text: Recombinant GST-tagged cytosolic domains of human c-Met and other receptor tyrosine kinases including mouse c-Met, human Ron, KDR, IGFR, EGFR, FGFR, Mer, TrkA and Tie2 are used to determine whether the compounds of the instant invention modulate the enzymatic activities of these kinases.
Soluble recombinant GST-tagged cytosolic domains of c-Met and other receptor tyrosine kinases are expressed in a baculovirus system (Pharmingen) according to a protocol recommended by the manufacturer. The c-DNA encoding each cytosolic domain is subcloned into a baculovirus expression vector (pGcGHLT-A, B or C, Pharmingen) containing an in frame 6× histidine tag and a GST tag. The resulting plasmid construct and BaculoGold baculovirus DNA (Pharmingen) are used to co-transfect Sf9 or Sf21 insect cells. After confirming expression of GST-tagged kinase fusion, a high titer recombinant baculovirus stock is produced, expression conditions are optimized, and a scaled up expression of rat KDR-GST fusion is performed. The fusion kinase is then purified from the insect cell lysate by affinity chromatography using glutathione agarose (Pharmingen). The purified protein is dialyzed against 50% glycerol, 2 mM DTT, 50 mM Tris-HCl (pH 7.4) and stored at −20° C. The protein concentrations of the fusion proteins are determined using Coomassie Plus Protein Assay (Pierce) with BSA as standard.
The procedure for determining the potency of a compound to inhibit c-Met kinase comprises the following steps: • 1. Prepare 3-fold serial diluted compound solutions in 100% dimethyl sulfoxide (DMSO) at 20× of the desired final concentrations in a 96 well plate. • 2. […] In a black assay plate, add 2.5 μl of compound solution (or DMSO) and 37.5 μl of master reaction mix per well. Initiate the kinase reaction by adding 10 μl of 0.25 mM MgATP per well. Allow the reactions to proceed for 80 min at room temperature. The final conditions for the reaction are 0.2 nM c-Met, 0.5 μM substrate, 50 μM MgATP, 5 mM MgCl2, 100 mM NaCl, 2 mM DTT, 0.1 mg/ml BSA, 50 mM Tris (pH 7.4) and 5% DMSO. • 4. […] Read HTRF signals on a Victor reader (PerkinElmer) in HTRF mode after 60 min. • 6.

T1 sequence (P08581 956-1390 limits assumed): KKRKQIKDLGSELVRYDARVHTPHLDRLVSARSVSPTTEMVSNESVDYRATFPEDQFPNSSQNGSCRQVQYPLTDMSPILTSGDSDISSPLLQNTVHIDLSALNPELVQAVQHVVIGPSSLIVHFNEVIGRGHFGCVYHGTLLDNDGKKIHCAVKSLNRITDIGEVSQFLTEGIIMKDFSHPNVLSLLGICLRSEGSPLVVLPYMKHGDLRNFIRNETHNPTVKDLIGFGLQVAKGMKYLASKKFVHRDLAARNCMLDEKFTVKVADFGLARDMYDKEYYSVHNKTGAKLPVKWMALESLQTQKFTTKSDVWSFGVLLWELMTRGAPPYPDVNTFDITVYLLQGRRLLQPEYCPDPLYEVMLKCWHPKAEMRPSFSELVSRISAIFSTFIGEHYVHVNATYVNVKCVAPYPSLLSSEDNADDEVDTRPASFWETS

Row | IC50 [µM] | Structure (SMILES)
1 | ≤ 50 | CN(C)S(=O)(=O)C(F)(F)c1ccc2ccc3ncc(-c4cnn(C)c4)cc3c(=O)c2c1 [Compound 4-1, 1,1-Difluoro-N,N-dimethyl-1-[3-(1-methyl-1H-pyrazol-4-yl)-5-oxo-5H-benzo[4,5]cyclohepta[1,2-b]pyridin-7-yl]methanesulfonamide]
2 | ≤ 50 | CN(C)S(=O)(=O)C(F)c1ccc2ccc3ncc(-c4cnn(C)c4)cc3c(=O)c2c1 (stereo not shown) [Compound 4-2, 1-Fluoro-N,N-dimethyl-1-[3-(1-methyl-1H-pyrazol-4-yl)-5-oxo-5H-benzo[4,5]cyclohepta[1,2-b]pyridin-7-yl]methanesulfonamide]
3 | ≤ 50 | Cn1cc(-c2cnc3ccc4ccc(CS(=O)(=O)Nc5cccnc5)cc4c(=O)c3c2)cn1 [Compound 5-5, 1-[3-(1-methyl-1H-pyrazol-4-yl)-5-oxo-5H-benzo[4,5]cyclohepta[1,2-b]pyridin-7-yl]-N-pyridin-3-ylmethanesulfonamide]
4 | ≤ 50 | CC(c1ccc2ccc3ncc(-c4cnn(C)c4)cc3c(=O)c2c1)S(=O)(=O)N(C)c1ccccc1 (stereo not shown) [Compound 7-1, N-methyl-1-[3-(1-methyl-1H-pyrazol-4-yl)-5-oxo-5H-benzo[4,5]cyclohepta[1,2-b]pyridin-7-yl]-N-phenylethanesulfonamide]
